According to US6524785B1, “Perfusion and/or preservation and/or re-perfusion solution during organ transplant” (Centre National de la Recherche Scientifique, priority 1998, dated 2003):
Entries after “also recorded” stand apart in the source; their conditions may differ.

Tests used:
transplanted heart = experiment: Heterotopic transplant of rat heart, 3 hours of ischemia, function and energy metabolism after 1 hour and 24 hours of re-perfusion; format: in vivo; details: with versus without arginine, after 1 hour and after 24 hours of re-perfusion; first results
Protocol: FIG. 20 represents, within the framework of a protocol corresponding to 3 hours of ischemia with arrest and preservation in CRMBM solution, the ratios of different energy metabolites after 1 hour of re-perfusion (represented by the white histogram marked with black lines) and 24 hours of re-perfusion (represented by the histogram with white and black hatching).
The cardiac function, as represented by the derivative of developed pressure (dP/dtmax), is indicated by the black histogram without arginine, and by the histogram with white and black hatching with arginine.
A heterotopic transplant of rat heart model has been developed, working where the function and the metabolism can be simultaneously analysed. In this model the functional and metabolic recovery has thus been studied after 1 hour and 24 hours of re-perfusion after ischemia of 3 hours, protected by the invention solution.
The study has made it possible to analyse the long term recovery of the heart, comparing 1 hour and 24 hours of re-perfusion.

isolated, perfused heart = experiment: Isolated perfused rat heart: cardioplegic arrest, cold ischemia and re-perfusion, hemodynamic and metabolic evaluation (P-31 MRS, biochemistry); details: L-arginine added versus without
Protocol: The hearts are removed from male Sprague Dawley rats of 350 to 375 g and anaesthetised by intraperitoneal injection of pentobarbital. The hearts are then perfused following the isovolumic contracting heart model. In this model, the heart is perfused with Krebs-Henseleit buffer at 37° C., without phosphate, in a retrograde manner via the aorta, at a constant pressure of 100 mmHg An incompressible balloon, placed in the left ventricle makes the contraction isovolumic. This model makes it possible to evaluate the cardiac function, by the developed pressure and to measure the compliance by measurement of the diastolic pressure. […]
The signals observed in the RMN spectrum of the P-31 are those of inorganic phosphate, phosphocreatine and the 3 phosphorous molecules of ATP. […] The areas and the positions of resonance are determined by using the NMR1 program (New Methods Research Syracuse, N.Y.) on an IBM Risc System 6000 operating system.
The areas measured are corrected by taking into consideration the saturation factors determined by comparing the acquired spectrums to completely relaxed spectrums. The areas of different metabolites can thus be converted into concentrations by referring to the ATPβ area, taking into consideration a cytosolic concentration of 11.6 mM for the ATP (determined by high pressure liquid chromatography). […]

N=C(N)NCCC[C@H](N)C(=O)O [L-arginine]
functional recovery of the heart, effect of L-arginine (transplanted heart): beneficial effect
content in adenylic nucleotides (isolated, perfused heart; 8 hours of ischemia and re-perfusion, HPLC): without however affecting
pool of amino acids during re-perfusion (isolated, perfused heart; protocol 3: 8 hours of ischemia, HPLC in frozen hearts): greater pool of amino acids; also recorded: limits the depletion
